Measurements as given in patent publication US6576669B2 (Boehringer Ingelheim Pharma KG, priority 2001, dated 2003).

System: muc-5AC RNA
Assay: Biochemical study: Pseudomonas aeruginosa LPS aerosol-induced muc-5AC RNA in rat trachea (TaqMan real time PCR)
Type: in vivo
Conditions: 3 mg/kg p.o. 6 hours before LPS aerosol, trachea taken 20 hours after exposure, compared with vehicle pre-treatment
Description: Two different rat strains, BDE and F344/NHsd, were tested because previous studies had shown strain-related differences in reactivity to lipopolysaccharides.
Animals Used: Adult male rats, strain BDE/Han, average weight about […] (range 340 g to 450 g), and adult male F344/NHsd rats, average weight about 250 g (range 240 g to 260g).
Animal Maintenance: The rats were housed in air-conditioned rooms, at 21° C.-25° C., relative humidity between 50% and 65%, day-night cycle 12 hours. They were fed before the start of the experiment and received tap water ad lib. 18 hours prior to drug administration, food was withdrawn, but drinking water remained available.
The compound of formula (I), namely carbamic acid, [[4-[[3-[[4-[1-(4-hydroxyphenyl)-1-methylethyl]phenoxy]methyl]phenyl]methoxy]phenyl]iminomethyl]ethyl ester, was synthesized as described in the International Patent Application WO 96/02497 and jet milled. For administration to animals, the compound of formula (I) was first dissolved in LABRASOL® and a 7% emulsion was then prepared of this LABRASOL® solution in distilled water (homogenized). […]
Extraction and Quantitation of RNA: Total RNA was isolated with the RNeasy system (Qiagen, Germany). […] Quantitation of muc-5AC RNA was performed by the TAQMAN® real time PCR system using an ABI Prism 7700 Detector (Perkin Elmer Corporation, California USA). […]

With `CCOC(=O)/N=C(\N)c1ccc(OCc2cccc(COc3ccc(C(C)(C)c4ccc(O)cc4)cc3)c2)cc1` [compound (I)] the “increase in tracheal epithelial expression of the muc-5AC gene (relative to 18S ribosomal RNA) after Pseudomonas aeruginosa aerosol” value (BDE strain rats, p=0.003) was “reduced this increase to less than half the value with only vehicle pre-treatment” and the “increase in tracheal epithelial expression of the muc-5AC gene (relative to 18S ribosomal RNA) after Pseudomonas aeruginosa aerosol” value (F344 strain rats, p=0.010) was “reduced this increase to less than half the value with only vehicle pre-treatment”.
